What is called Ki is the equilibrium dissociation constant of an inhibitor or competing ligand from its target.

Our source for the Ki values is BindingDB's records for patent US12071420 (Hoffmann-La Roche, 2024).

The target of the assay is Cannabinoid receptor 2 (Homo sapiens, UniProt P34972). Briefly: Radioligand Binding Assay. The protocol: The affinity of the compounds of the invention for cannabinoid CB1 receptors was determined using recommended amounts of membrane preparations (PerkinElmer) of human embryonic kidney (HEK) cells expressing the human CNR1 or CNR2 receptors in conjunction with 1.5 or 2.6 nM [3H]-CP-55,940 (Perkin Elmer) as radioligand, respectively. Binding was performed in binding buffer (50 mM Tris, 5 mM MgCl2, 2.5 mM EDTA, and 0.5% (wt/vol) fatty acid free BSA, pH 7.4 for CB1 receptor and 50 mM Tris, 5 mM MgCl2, 2.5 mM EGTA, and 0.1% (wt/vol) fatty acid free BSA, pH 7.4 for CB2 receptor) in a total volume of 0.2 ml for 1 h at 30° C. shaking. The reaction was terminated by rapid filtration through microfiltration plates coated with 0.5% polyethylenimine (UniFilter GF/B filter plate; Packard). Bound radioactivity was analyzed for Ki using nonlinear regression analysis (Activity Base, ID Business Solution, Limited), with the Kd values for [3H]CP55,940 determined from saturation experiments. The compounds of formula (I) show an excellent affinity for the CB2 receptor.
Cannabinoid receptor 2, sequence (P34972 whole entry): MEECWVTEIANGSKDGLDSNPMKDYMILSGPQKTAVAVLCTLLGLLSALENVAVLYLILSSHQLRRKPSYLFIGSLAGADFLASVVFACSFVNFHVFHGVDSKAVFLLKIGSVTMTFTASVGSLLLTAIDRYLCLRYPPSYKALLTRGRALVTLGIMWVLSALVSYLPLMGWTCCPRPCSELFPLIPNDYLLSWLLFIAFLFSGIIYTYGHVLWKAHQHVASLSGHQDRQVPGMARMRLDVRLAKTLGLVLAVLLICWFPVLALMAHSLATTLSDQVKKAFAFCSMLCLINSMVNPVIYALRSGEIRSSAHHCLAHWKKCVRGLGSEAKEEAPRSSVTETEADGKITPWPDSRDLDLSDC

`COC1CN(c2ccc(C(=O)N[C@H](COCF)CC(C)C)nc2OCC2CC2)C1` [US12071420, Example 25]: the Ki was found to be 14 nM.
